For series [1], the target named is Non-receptor tyrosine-protein kinase TYK2 (Homo sapiens, UniProt P29597). The series can be described thus: Inhibition of recombinant human N-terminal GST-tagged TYK2 cytoplasmic domain (833 to 1187 residues) expressed in baculovirus expression system using TK-substrate-biotin preincubated for 5 mins followed by substrate addition and measured after 30 mins by HTRF assay. In general terms: Time-resolved FRET reads energy transfer from a long-lived donor to a nearby acceptor.

For series [2], the system named is RAW264.7. The series can be described thus: Cytotoxicity against mouse RAW264.7 cells assessed as reduction in cell viability at 10 uM measured after 72 hrs by MTS assay. The series is classed as cell-based. The note with it: raw264.7, 72 h. (In general: Tetrazolium dyes change colour on reduction, which living cells bring about.)
Series [3] addresses EGFR (Epidermal growth factor receptor) (Homo sapiens, UniProt P00533). Put plainly: Inhibition of recombinant human GST-tagged EGFR (668 to 1210 residues) expressed in baculovirus expression system at 100 nM using Tyr04 peptide as substrate incubated for 1 hr by Z'lyte assay relative to control. The note with it: probe Tyr04 peptide.
Series [4] addresses ERBB2 (Receptor tyrosine-protein kinase erbB-2) (Homo sapiens, UniProt P04626). Put plainly: Inhibition of His-tagged human recombinant ERBB2 (676 to 1255 residues) expressed in baculovirus expression system at 100 nM using Tyr 06 as substrate preincubated for 1 hr in presence of ATP by Z'-LYTE assay relative to control. To be noted: probe Tyr 06.
The target in series [5] is T1, Tyrosine-protein kinase JAK3 (Homo sapiens) (UniProt P52333).
T1 sequence (whole entry): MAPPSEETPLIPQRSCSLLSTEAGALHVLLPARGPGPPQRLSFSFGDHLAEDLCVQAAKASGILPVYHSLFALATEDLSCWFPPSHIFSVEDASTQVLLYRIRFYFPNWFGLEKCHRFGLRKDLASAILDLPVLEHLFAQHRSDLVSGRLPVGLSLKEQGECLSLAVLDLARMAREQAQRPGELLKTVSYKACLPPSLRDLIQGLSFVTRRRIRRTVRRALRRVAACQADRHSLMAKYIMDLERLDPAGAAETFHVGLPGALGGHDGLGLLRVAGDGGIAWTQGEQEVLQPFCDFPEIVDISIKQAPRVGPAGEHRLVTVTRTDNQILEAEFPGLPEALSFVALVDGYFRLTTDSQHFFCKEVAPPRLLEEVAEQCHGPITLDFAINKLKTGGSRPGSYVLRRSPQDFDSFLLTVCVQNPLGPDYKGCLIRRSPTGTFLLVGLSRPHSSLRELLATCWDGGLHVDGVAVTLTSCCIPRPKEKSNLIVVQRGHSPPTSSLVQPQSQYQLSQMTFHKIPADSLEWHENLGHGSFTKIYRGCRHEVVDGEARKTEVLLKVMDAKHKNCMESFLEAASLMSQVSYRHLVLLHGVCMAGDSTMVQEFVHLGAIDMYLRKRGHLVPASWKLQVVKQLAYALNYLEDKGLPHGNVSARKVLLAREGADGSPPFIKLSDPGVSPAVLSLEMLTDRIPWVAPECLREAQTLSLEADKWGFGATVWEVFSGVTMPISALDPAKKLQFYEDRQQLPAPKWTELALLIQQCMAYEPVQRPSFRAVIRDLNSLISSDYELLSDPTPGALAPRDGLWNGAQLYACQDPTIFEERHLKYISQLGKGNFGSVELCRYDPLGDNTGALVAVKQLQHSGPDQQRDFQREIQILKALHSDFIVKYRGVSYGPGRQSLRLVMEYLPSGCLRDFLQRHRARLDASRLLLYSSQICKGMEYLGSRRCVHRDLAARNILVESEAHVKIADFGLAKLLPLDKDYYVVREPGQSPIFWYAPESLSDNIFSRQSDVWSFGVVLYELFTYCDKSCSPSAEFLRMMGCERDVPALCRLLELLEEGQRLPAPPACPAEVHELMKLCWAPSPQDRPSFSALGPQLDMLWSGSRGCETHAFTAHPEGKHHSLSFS
The series can be described thus: Irreversible inhibition of recombinant human GST-tagged JAK3 cytoplasmic domain (781 to 1124 residues) expressed in baculovirus expression system at IC90 using TK-substrate-biotin preincubated for 30 mins followed by 1000 fold dilution and measured after 24 hrs by HTRF assay. To be noted: time 24.5 hrs.

Series [6] addresses RET (Proto-oncogene tyrosine-protein kinase receptor Ret) (Homo sapiens, UniProt P07949). The series can be described thus: Inhibition of recombinant human GST-tagged RET (658 to 1114 residues) expressed in baculovirus expression system at 100 nM using Tyr 02 as substrate incubated for 1 hr in presence of ATP by Z'-LYTE assay relative to control. To be noted: probe Tyr 02.
Series [7] is described as follows: AUC (0 to t) in ICR mouse at 10 mg/kg, iv administered as single dose by LC-MS/MS analysis. Format: ADME, organism-based. Also noted: dose 10 mg/kg. To be noted: in vivo.
Series [8] is described as follows: Plasma clearance in ICR mouse at 10 mg/kg, iv administered as single dose by LC-MS/MS analysis. The series is classed as ADME, organism-based. The note with it: in vivo.
Series [9] can be described thus: Cmax in ICR mouse at 10 mg/kg, iv administered as single dose by LC-MS/MS analysis. Format: ADME, organism-based. Also noted: route intravenous, dose 10 mg/kg. The note with it: in vivo.
A short description of series [10]: AUC (0 to t) in ICR mouse at 30 mg/kg, po administered as single dose via gavage by LC-MS/MS analysis. Format: ADME, organism-based. The arrangement: dose 30 mg/kg. The note with it: in vivo.
Series [11] is described as follows: Cmax in ICR mouse at 30 mg/kg, po administered as single dose via gavage by LC-MS/MS analysis. Format: ADME, organism-based. Also noted: route oral, dose 30 mg/kg. To be noted: in vivo.
A short description of series [12]: Oral bioavailability in ICR mouse at 30 mg/kg administered as single dose via gavage by LC-MS/MS analysis. Format: ADME, organism-based. To be noted: in vivo.
Series [13] deals with Mus musculus. Put plainly: Immunosuppressive activity in Balb/c mouse model of oxazolone-induced delayed type hypersensitivity assessed as reduction in neutrophil leukocyte infiltration at 30 mg/kg, po measured after 7 days by H and E staining based histopathological analysis. The series is classed as functional, organism-based. To be noted: time 7.0 day.
Series [14] is described as follows: Toxicity in Balb/c mouse model of oxazolone-induced delayed type hypersensitivity assessed as change in microscopic examination up to 30 mg/kg, po. The note with it: in vivo. The series is classed as organism-based.
In series [15] the target is T1, Tyrosine-protein kinase JAK3 (Homo sapiens).

The source made the active and inactive calls. The rule behind the calls is not given here.

The IC50 is the concentration that gives 50% inhibition. Broadly, the inhibition is how much of the control response was suppressed. As usually defined, the AUC(0-t) is exposure summed from dosing to a finite time, without extrapolation to infinity. The low end stands for low exposure, the high end for high exposure. In general, Cmax refers to the peak of the concentration-time curve. For orientation: bioavailability means dose-corrected exposure relative to a reference, in per cent. Low values mean poor availability, high ones good availability.

Chain of RET (Proto-oncogene tyrosine-protein kinase receptor Ret) (P07949 whole entry, the tested form may be a part): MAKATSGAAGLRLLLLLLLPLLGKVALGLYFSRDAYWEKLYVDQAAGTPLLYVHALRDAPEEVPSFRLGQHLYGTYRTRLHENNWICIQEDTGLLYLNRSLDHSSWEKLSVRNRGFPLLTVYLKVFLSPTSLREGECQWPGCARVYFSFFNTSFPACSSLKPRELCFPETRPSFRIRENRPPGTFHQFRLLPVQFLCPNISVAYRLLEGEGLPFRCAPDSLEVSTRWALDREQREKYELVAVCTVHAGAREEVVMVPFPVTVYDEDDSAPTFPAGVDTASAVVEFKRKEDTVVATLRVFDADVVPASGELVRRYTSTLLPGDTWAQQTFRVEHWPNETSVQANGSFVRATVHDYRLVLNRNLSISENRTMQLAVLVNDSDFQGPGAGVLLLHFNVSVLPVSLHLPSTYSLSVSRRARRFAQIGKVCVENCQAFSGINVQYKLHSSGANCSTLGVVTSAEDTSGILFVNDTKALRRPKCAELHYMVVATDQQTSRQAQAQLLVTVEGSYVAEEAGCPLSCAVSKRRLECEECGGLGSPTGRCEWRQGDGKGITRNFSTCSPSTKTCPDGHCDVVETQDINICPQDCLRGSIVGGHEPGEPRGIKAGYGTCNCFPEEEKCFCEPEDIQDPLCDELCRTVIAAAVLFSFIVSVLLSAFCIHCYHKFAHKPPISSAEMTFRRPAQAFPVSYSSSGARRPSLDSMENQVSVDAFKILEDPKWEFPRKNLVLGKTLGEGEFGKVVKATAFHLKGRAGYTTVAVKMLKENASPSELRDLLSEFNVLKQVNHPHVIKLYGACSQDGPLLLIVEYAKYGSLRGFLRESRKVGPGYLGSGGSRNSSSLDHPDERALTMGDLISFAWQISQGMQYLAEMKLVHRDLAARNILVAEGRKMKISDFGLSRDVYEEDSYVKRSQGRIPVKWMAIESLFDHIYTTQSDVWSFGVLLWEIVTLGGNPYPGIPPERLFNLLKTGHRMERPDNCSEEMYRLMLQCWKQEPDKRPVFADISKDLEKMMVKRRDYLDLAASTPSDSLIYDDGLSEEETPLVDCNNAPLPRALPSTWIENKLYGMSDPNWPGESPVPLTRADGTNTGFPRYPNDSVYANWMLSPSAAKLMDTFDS
Chain of EGFR (Epidermal growth factor receptor) (P00533 whole entry, the tested form may be a part): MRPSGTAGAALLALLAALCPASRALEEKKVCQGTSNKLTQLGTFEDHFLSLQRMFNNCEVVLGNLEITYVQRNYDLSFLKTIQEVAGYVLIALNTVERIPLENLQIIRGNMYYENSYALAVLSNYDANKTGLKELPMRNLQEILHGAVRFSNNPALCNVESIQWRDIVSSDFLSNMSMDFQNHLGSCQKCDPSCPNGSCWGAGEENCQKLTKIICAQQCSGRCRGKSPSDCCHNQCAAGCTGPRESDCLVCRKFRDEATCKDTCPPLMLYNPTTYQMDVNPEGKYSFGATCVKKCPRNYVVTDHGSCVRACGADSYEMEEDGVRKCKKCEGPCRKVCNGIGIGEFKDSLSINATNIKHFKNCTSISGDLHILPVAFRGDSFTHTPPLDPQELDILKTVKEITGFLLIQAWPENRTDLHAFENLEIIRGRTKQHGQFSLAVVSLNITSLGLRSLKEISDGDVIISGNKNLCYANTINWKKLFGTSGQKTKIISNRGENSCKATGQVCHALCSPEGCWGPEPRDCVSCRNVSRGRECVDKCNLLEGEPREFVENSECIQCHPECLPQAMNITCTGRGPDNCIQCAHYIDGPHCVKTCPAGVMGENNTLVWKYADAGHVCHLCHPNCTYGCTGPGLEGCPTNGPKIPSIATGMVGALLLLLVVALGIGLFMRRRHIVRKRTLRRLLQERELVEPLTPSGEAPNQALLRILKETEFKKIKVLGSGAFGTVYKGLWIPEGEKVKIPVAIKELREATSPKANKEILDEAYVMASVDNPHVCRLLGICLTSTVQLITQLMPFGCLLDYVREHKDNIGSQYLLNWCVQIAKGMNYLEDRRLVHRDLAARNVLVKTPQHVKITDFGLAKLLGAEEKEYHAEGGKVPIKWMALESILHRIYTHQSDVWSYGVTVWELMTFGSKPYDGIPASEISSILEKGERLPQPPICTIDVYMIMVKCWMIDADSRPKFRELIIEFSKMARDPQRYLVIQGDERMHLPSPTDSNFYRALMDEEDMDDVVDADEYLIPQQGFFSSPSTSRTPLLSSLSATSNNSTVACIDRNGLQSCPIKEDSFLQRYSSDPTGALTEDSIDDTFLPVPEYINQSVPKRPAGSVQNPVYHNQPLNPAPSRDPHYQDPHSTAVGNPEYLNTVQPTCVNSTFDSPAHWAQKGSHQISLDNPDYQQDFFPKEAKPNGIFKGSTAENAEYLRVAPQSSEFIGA
Chain of ERBB2 (Receptor tyrosine-protein kinase erbB-2) (P04626 whole entry, the tested form may be a part): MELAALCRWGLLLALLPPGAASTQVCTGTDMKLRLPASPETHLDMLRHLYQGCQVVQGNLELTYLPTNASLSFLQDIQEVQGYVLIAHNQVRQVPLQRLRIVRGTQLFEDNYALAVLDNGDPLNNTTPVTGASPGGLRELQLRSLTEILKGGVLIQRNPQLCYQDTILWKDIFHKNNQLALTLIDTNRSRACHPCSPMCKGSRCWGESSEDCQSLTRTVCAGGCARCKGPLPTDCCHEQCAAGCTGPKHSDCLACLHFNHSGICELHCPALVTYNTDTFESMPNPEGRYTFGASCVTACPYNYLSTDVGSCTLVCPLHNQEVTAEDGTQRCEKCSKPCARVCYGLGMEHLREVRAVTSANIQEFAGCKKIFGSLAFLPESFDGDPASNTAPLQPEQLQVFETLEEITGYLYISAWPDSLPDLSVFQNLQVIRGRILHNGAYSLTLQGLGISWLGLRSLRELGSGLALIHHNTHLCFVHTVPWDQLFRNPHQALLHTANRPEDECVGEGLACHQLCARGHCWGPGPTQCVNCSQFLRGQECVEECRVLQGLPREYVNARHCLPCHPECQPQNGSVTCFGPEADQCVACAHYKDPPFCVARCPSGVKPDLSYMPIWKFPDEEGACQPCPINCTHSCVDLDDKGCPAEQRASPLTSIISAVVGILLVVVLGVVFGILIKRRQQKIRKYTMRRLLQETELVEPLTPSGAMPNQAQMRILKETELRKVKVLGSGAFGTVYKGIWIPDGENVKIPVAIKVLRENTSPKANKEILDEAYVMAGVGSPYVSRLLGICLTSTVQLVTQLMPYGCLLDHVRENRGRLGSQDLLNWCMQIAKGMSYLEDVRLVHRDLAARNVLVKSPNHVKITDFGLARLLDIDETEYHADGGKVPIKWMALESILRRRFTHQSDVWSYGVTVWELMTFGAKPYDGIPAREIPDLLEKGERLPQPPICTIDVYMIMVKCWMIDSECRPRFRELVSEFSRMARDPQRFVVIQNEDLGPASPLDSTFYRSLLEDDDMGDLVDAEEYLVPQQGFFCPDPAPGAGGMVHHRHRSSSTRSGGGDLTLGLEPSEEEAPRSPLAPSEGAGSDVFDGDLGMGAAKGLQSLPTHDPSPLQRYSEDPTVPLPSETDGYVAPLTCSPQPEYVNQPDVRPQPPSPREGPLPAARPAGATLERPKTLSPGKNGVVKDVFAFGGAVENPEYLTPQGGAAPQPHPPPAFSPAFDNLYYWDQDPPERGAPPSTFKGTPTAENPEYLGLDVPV
Chain of Non-receptor tyrosine-protein kinase TYK2 (P29597 whole entry, the tested form may be a part): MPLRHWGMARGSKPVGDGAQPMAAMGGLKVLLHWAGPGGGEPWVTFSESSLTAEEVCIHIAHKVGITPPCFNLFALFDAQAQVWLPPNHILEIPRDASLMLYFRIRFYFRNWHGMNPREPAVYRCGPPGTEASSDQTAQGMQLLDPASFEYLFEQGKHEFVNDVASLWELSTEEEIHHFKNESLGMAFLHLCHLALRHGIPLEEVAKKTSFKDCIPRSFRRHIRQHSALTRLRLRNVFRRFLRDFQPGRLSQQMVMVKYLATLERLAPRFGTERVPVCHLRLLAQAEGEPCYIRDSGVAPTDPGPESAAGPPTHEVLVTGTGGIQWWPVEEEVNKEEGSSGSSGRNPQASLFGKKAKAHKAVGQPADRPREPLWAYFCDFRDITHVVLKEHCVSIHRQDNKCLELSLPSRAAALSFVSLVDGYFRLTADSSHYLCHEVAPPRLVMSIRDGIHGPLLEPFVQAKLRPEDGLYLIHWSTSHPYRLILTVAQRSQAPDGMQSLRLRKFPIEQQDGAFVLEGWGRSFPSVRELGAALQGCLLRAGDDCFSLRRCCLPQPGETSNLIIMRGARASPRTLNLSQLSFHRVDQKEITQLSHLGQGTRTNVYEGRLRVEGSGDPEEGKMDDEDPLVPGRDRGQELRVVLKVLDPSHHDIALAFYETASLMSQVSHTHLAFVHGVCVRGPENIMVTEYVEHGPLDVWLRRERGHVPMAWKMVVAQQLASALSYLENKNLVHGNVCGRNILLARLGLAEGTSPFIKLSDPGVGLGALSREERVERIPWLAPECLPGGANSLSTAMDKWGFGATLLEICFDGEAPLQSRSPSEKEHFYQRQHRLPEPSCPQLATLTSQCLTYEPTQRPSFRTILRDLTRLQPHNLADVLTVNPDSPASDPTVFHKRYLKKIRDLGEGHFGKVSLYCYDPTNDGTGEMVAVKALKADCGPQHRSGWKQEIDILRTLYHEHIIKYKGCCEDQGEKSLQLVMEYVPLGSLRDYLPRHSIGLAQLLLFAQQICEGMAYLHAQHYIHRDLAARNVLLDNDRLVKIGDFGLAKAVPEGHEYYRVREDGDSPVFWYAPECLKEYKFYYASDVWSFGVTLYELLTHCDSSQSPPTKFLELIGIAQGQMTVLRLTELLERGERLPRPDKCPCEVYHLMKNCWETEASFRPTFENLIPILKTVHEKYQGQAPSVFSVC

For `C=CC(=O)Nc1ccc(-c2ccnc(Nc3ccc(N4CCOCC4)cc3)n2)cc1`, the IC50 in series [1] came out at 2780 nM. The Activity entry in series [2] and in [14] was “Non-Toxic” in each case. Further, the values for the inhibition at 1 h, 0.1 µM in series [3], in [4] and in series [6] were 1.2%, 19.2% and 2.9%, respectively. Moreover, in series [5], the inhibition entry is “Active”. In addition, the AUC(0-t) in series [7] was 1240 ng·h/mL; in series [10], 889 ng·h/mL. The molecule further came in with a CLz/F in [8] of 8.15 L/h/kg. Further, the Cmax in series [9] came to 8760 ng/mL; in series [11], 2010 ng/mL. In series [12], this molecule came in with a bioavailability of 23.8%. In addition, the result in [13] was Active. Also, in series [15], the TDI entry was “Active”.

These data come from ChEMBL document CHEMBL4680201, “Design, synthesis, and pharmacological evaluation of 4- or 6-phenyl-pyrimidine derivatives as novel and selective Janus kinase 3 inhibitors” (Eur J Med Chem, 2020).
